Test results as given in the supplement of paper PMC10307832.

What was measured:
Experiment in all cases: relative viability (nuclei count vs DMSO), 5 days (fraction); higher = more cells survive
Dabrafenib + OSI-027 = compound: CC(C)(C)c1nc(-c2cccc(NS(=O)(=O)c3c(F)cccc3F)c2F)c(-c2ccnc(N)n2)s1 [Dabrafenib] + COc1cccc2cc(-c3nc([C@H]4CC[C@H](C(=O)O)CC4)n4ncnc(N)c34)[nH]c12 [OSI-027] (partner 0.5 µM)
Method in brief: (§1)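 Five library-drug doses in √10 steps were combined with a fixed anchor-drug dose, or a single drug was given alone, by pin tool to lung cancer cell lines in 1536-well plates the day after seeding. Nuclei were stained and counted after 5 days. Relative viability is the nuclei count in treated wells over that in vehicle wells, taken as the median of duplicate plates.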

VX-702 + Lapatinib = compound: NC(=O)c1ccc(N(C(N)=O)c2c(F)cccc2F)nc1-c1ccc(F)cc1F [VX-702] + CS(=O)(=O)CCNCc1ccc(-c2ccc3ncnc(Nc4ccc(OCc5cccc(F)c5)c(Cl)c4)c3c2)o1 [Lapatinib] (partner 2 µM)
Method in brief: as §1

VX-702 + Dasatinib = compound: NC(=O)c1ccc(N(C(N)=O)c2c(F)cccc2F)nc1-c1ccc(F)cc1F [VX-702] + Cc1nc(Nc2ncc(C(=O)Nc3c(C)cccc3Cl)s2)cc(N2CCN(CCO)CC2)n1 [Dasatinib] (partner 0.075 µM)
Method in brief: as §1

Dabrafenib + Pictilisib = compound: CC(C)(C)c1nc(-c2cccc(NS(=O)(=O)c3c(F)cccc3F)c2F)c(-c2ccnc(N)n2)s1 [Dabrafenib] + CS(=O)(=O)N1CCN(Cc2cc3nc(-c4cccc5[nH]ncc45)nc(N4CCOCC4)c3s2)CC1 [Pictilisib] (partner 1 µM)
Method in brief: as §1

Cell Line	relative viability (Dabrafenib + OSI-027; first compound 0.003 µM)	relative viability (Dabrafenib + OSI-027; first compound 0.009487 µM)	relative viability (Dabrafenib + OSI-027; first compound 0.03 µM)	relative viability (Dabrafenib + OSI-027; first compound 0.3 µM)	relative viability (VX-702 + Lapatinib; first compound 0.02 µM)	relative viability (VX-702 + Lapatinib; first compound 0.2 µM)	relative viability (VX-702 + Lapatinib; first compound 0.6325 µM)	relative viability (VX-702 + Lapatinib; first compound 2 µM)	relative viability (VX-702 + Dasatinib; first compound 0.02 µM)	relative viability (VX-702 + Dasatinib; first compound 0.2 µM)	relative viability (VX-702 + Dasatinib; first compound 0.6325 µM)	relative viability (VX-702 + Dasatinib; first compound 2 µM)	relative viability (Dabrafenib + Pictilisib; first compound 0.003 µM)	relative viability (Dabrafenib + Pictilisib; first compound 0.009487 µM)	relative viability (Dabrafenib + Pictilisib; first compound 0.03 µM)	relative viability (Dabrafenib + Pictilisib; first compound 0.3 µM)	relative viability (Dabrafenib + OSI-027; first compound 0.09487 µM)	relative viability (Dabrafenib + Pictilisib; first compound 0.09487 µM)
HCC-827	0.586	0.955	0.744	0.657	0.181	0.191	0.19	0.152	0.274	0.342	0.271	0.145	1.07	1.13	0.89	1.03	–	–
HOP-62	0.354	0.841	0.778	0.557	1.04	0.894	1.08	0.975	0.741	0.702	0.674	0.735	–	0.843	0.648	0.727	0.631	0.581
IA-LM	–	–	–	–	0.789	0.738	0.77	0.761	–	–	–	–	0.379	0.569	0.444	0.255	–	0.412
LC-2-ad	–	1.14	0.83	0.859	0.892	0.972	1.01	1.03	0.724	0.581	0.619	0.901	0.489	0.137	0.408	0.497	0.76	0.455
LCLC-97TM1	0.308	0.535	0.683	0.237	0.908	0.786	1.3	0.947	0.971	0.803	0.817	1.01	–	0.206	0.213	0.149	0.237	–
LCLC-103H	0.4	0.502	0.46	0.461	–	–	–	–	0.487	0.403	0.504	0.507	0.556	0.657	0.426	0.71	0.51	0.721
LK-2	0.174	0.238	0.155	0.206	0.986	0.727	0.891	0.895	0.269	0.329	0.219	0.288	0.552	0.614	–	0.748	0.248	0.587
LOU-NH91	0.488	0.801	0.666	0.75	0.789	0.645	0.639	0.675	0.572	0.553	0.576	0.364	–	0.549	0.555	0.566	0.7	0.548
LU99A	0.282	0.307	0.29	0.268	0.948	1.02	0.987	0.982	0.427	0.415	0.522	0.402	0.336	0.268	0.342	0.266	0.339	0.299
LXF-289	0.337	0.819	0.751	0.856	0.965	0.876	0.912	0.922	0.234	0.199	0.212	0.225	0.656	0.809	0.671	0.842	0.783	0.853
